Laboratory results reported in ChEMBL document CHEMBL3108686, “Cytotoxic dammarane-type triterpenoids from the stem bark of Dysoxylum binecteriferum” (J Nat Prod, 2014).

Legend:
MCF7 = test: Cytotoxicity against human MCF7 cells assessed as cell viability after 48 hrs by MTT assay; type: functional, cell-based; conditions: MCF7, 48 h
HepG2 = test: Cytotoxicity against human HepG2 cells assessed as cell viability after 48 hrs by MTT assay; type: functional, cell-based; conditions: HepG2, 48 h
A549 = test: cells; conditions: Homo sapiens, A549, 48 h
Description: Cytotoxicity against human A549 cells assessed as cell viability after 48 hrs by MTT assay

RAW264.7 = test: Antiinflammatory activity in mouse RAW264.7 cells assessed as inhibition of LPS-stimulated nitric oxide production after 24 hrs by Griess assay; type: functional, cell-based; conditions: RAW264.7, 24 h

Compound	IC50 (A549) [µM]	IC50 (RAW264.7) [µM]	IC50 (MCF7) [µM]	IC50 (HepG2) [µM]
CC(C)(O)[C@@H]1CC[C@@](C)([C@H]2CC[C@]3(C)[C@@H]2CC[C@@H]2[C@@]4(C)CC[C@@H](O)C(C)(C)[C@@H]4CC[C@]23C)O1	> 50	> 100	> 50	> 50
CC(C)(O)[C@@H]1CC[C@@](C)([C@H]2CC[C@]3(C)[C@@H]2CC[C@@H]2[C@@]4(C)CC[C@@H](O)[C@@](C)(CO)[C@@H]4CC[C@]23C)O1	> 50	64.9	30.4	20.2
CC(C)(O)[C@H]1CC[C@@](C)([C@H]2CC[C@]3(C)[C@@H]2CC[C@@H]2[C@@]4(C)CC[C@@H](O)[C@@](C)(CO)[C@@H]4CC[C@]23C)O1	> 50	> 100	23	> 50
CC(C)(O)[C@H]1CC[C@@](C)([C@H]2CC[C@]3(C)[C@@H]2CC[C@@H]2[C@@]4(C)CCC(=O)[C@@](C)(CO)[C@@H]4CC[C@]23C)O1	> 50	> 100	> 50	> 50
CC(C)(O)[C@@H]1CC[C@@](C)([C@H]2CC[C@]3(C)[C@@H]2CC[C@@H]2[C@@]4(C)CCC(=O)[C@](C)(CO)[C@@H]4CC[C@]23C)O1	> 50	> 100	> 50	> 50
CC(C)(O)[C@@H]1CC[C@@](C)([C@H]2CC[C@]3(C)[C@@H]2CC[C@@H]2[C@@]4(C)CCC(=O)C(C)(C)[C@@H]4C[C@H](O)[C@]23C)O1	> 50	> 100	> 50	> 50
CC1(C)[C@H](O)CC[C@]2(C)[C@H]3CC[C@@H]4[C@@H]([C@]5(C)C=CC(=O)O5)CC[C@@]4(C)[C@]3(C)CC[C@@H]12	> 50	> 100	> 50	> 50
C=C(CO)[C@@H]1CC[C@]2(C)[C@H](CC[C@@H]3[C@@H]([C@]4(C)CC[C@@H](C(C)(C)O)O4)CC[C@]32C)[C@@]1(C)CCC(=O)OC	> 50	> 100	> 50	28
C=C(C)[C@@H]1CC[C@]2(C)[C@H](CC[C@@H]3[C@@H]([C@]4(C)CC[C@H](O)C(C)(C)O4)CC[C@]32C)[C@@]1(C)CCC(=O)OC	> 50	> 100	> 50	> 50
CCOC(=O)CC[C@@]1(C)[C@H]([C@@](C)(O)CO)CC[C@]2(C)[C@@H]1CC[C@@H]1[C@@H]([C@]3(C)CC[C@H](C(C)(C)O)O3)CC[C@]12C	> 50	57.7	> 50	> 50
CCOC(=O)CC[C@@]1(C)[C@H]([C@@](C)(O)CO)CC[C@]2(C)[C@@H]1CC[C@@H]1[C@@H]([C@]3(C)CC[C@@H](C(C)(C)O)O3)CC[C@]12C	> 50	> 100	> 50	> 50
CCOC(=O)CC[C@@]1(C)[C@H]([C@](C)(O)CO)CC[C@]2(C)[C@@H]1CC[C@@H]1[C@@H]([C@]3(C)CC[C@@H](C(C)(C)O)O3)CC[C@]12C	> 50	> 100	> 50	> 50
CCOC(=O)CC[C@@]1(C)[C@H]([C@](C)(O)CO)CC[C@]2(C)[C@@H]1CC[C@@H]1[C@@H]([C@]3(C)CC[C@H](C(C)(C)O)O3)CC[C@]12C	> 50	> 100	> 50	> 50
CC(C)(O)[C@H]1CC[C@@](C)([C@H]2CC[C@]3(C)[C@@H]2CC[C@@H]2[C@@]4(C)CC[C@@H](O)C(C)(C)[C@@H]4CC[C@]23C)O1	> 50	> 100	> 50	> 50
CC1(C)[C@H](O)CC[C@]2(C)[C@H]3CC[C@@H]4[C@@H]([C@]5(C)CCC(=O)O5)CC[C@@]4(C)[C@]3(C)CC[C@@H]12 [CABRALEAHYDROXYLACTONE]	> 50	> 100	> 50	> 50
CC1(C)C(=O)CC[C@]2(C)[C@H]3CC[C@@H]4[C@@H]([C@]5(C)CCC(=O)O5)CC[C@@]4(C)[C@]3(C)CC[C@@H]12 [CABRALELACTONE]	> 50	> 100	> 50	> 50

Second part, led by results:

IC50 (A549) [µM]	IC50 (RAW264.7) [µM]	Compound	IC50 (MCF7) [µM]	IC50 (HepG2) [µM]
35	> 100	C=C(CC[C@H](O)C(C)(C)O)[C@H]1CC[C@]2(C)[C@@H]1CC[C@@H]1[C@@]3(C)CC[C@@H](O)C(C)(C)[C@@H]3CC[C@]12C	16.7	5.9
> 50	> 100	C=C(C)[C@@H]1CC[C@]2(C)[C@H](CC[C@@H]3[C@@H]([C@]4(C)CC[C@@H](C(C)(C)O)O4)CC[C@]32C)[C@@]1(C)CCC(=O)OC	> 50	> 50
12.9	> 100	C=C(C)[C@@H]1CC[C@]2(C)[C@H](CC[C@@H]3[C@@H]([C@]4(C)CC[C@H](C(C)(C)O)O4)CC[C@]32C)[C@@]1(C)CCC(=O)OCC	18.4	14.9
> 50	> 100	C=C(C)[C@@H]1CC[C@]2(C)[C@H](CC[C@@H]3[C@@H]([C@]4(C)CCC(=O)O4)CC[C@]32C)[C@@]1(C)CCC(=O)OCC	> 50	38.4
> 50	31.8	C=C(C)[C@@H]1CC[C@]2(C)[C@H](CC[C@@H]3[C@@H]([C@]4(C)CCC(=O)O4)CC[C@]32C)[C@@]1(C)CCC(=O)OC	> 50	> 50
> 50	> 100	C=C(C)[C@@H]1CC[C@]2(C)[C@H](CC[C@@H]3[C@@H]([C@]4(C)CCC(=O)O4)CC[C@]32C)[C@@]1(C)CCC(=O)O	> 50	> 50
28.2	> 100	CC(C)(O)[C@@H]1CC[C@@](C)([C@H]2CC[C@]3(C)[C@@H]2CC[C@@H]2[C@@]4(C)CCC(=O)[C@@](C)(CO)[C@@H]4CC[C@]23C)O1	18.3	6.5
12.4	> 100	CC1(C)C(=O)CC[C@]2(C)[C@H]3CC[C@@H]4[C@@H]([C@]5(C)C[C@H](O)C(=O)O5)CC[C@@]4(C)[C@]3(C)CC[C@@H]12	26.7	8
12.9	> 100	C=C(C)[C@@H]1CC[C@]2(C)[C@H](CC[C@@H]3[C@@H]([C@]4(C)CC[C@H](C(C)(C)O)O4)CC[C@]32C)[C@@]1(C)CCC(=O)OC [METHYL SHOREATE]	5.6	6.3
